Measured values published in ChEMBL document CHEMBL4431396, “Novel Autotaxin Inhibitors for the Treatment of Osteoarthritis Pain: Lead Optimization via Structure-Based Drug Design” (ACS Med Chem Lett, 2016).

Experiments:
Assay type in all cases: ADME, organism-based
[1] = tested on: Rattus norvegicus; assay: Time duration for plasma concentration stays above in vitro IC80 level in rat at 10 mg/kg, po administered as single dose; settings: in vivo
[2] = Volume of distribution at steady state in rat at 1 mg/kg, iv; settings: in vivo, read-out: Vdss
[3] = Oral bioavailability in rat at 10 mg/kg administered as single dose; settings: in vivo
[4] = AUC in rat at 10 mg/kg, po administered as single dose; settings: in vivo
[5] = Cmax in rat at 10 mg/kg, po administered as single dose; set-up: dose 10 mg/kg, route oral; settings: in vivo
[6] = Half life in rat at 1 mg/kg, iv; settings: in vivo

O=C(COCCc1cnn[nH]1)N1Cc2cnc(NC3Cc4ccccc4C3)nc2C1
Time [1]: > 12 h | Vd [2]: 1.4 L/kg | bioavailability [3]: 23% | AUC [4]: 3.44 µM·h | Cmax [5]: 0.66 µM | half-life [6]: 1.14 h
